Assay results published in PubChem BioAssay AID1259407 (Chemical Carcinogenesis Research Information System (CCRIS), 2018).
Calls of active or inactive are those of the source. The rule behind the calls is not given here.

Test system: CCRIS mutagenicity, Ames/micronucleus/aberration tests
Assay: CCRIS mutagenicity studies
[1] = Test System: AMES SALMONELLA TYPHIMURIUM, Strain/Indicator: TA98, Metabolic Activation: NONE, Method: STANDARD PLATE
[2] = Test System: AMES SALMONELLA TYPHIMURIUM, Strain/Indicator: TA100, Metabolic Activation: NONE, Method: STANDARD PLATE
[3] = Test System: AMES SALMONELLA TYPHIMURIUM, Strain/Indicator: TA1535, Metabolic Activation: NONE, Method: STANDARD PLATE
[4] = Test System: AMES SALMONELLA TYPHIMURIUM, Strain/Indicator: TA1537, Metabolic Activation: NONE, Method: STANDARD PLATE
[5] = Test System: AMES SALMONELLA TYPHIMURIUM, Strain/Indicator: TA1538, Metabolic Activation: NONE, Method: STANDARD PLATE

Measured: mutagenic call

Cc1ccc(C(=O)c2cc(O)c(O)c([N+](=O)[O-])c2)cc1
inactive: Test System: AMES SALMONELLA TYPHIMURIUM, Strain/Indicator: TA97, Metabolic Activation: NONE, Method: PREINCUBATION inactive; negative | Test System: AMES SALMONELLA TYPHIMURIUM, Strain/Indicator: TA97, Metabolic Activation: NONE, Method: STANDARD PLATE inactive; negative | Test System: AMES SALMONELLA TYPHIMURIUM, Strain/Indicator: TA97, Metabolic Activation: RAT, LIVER, S-9, PHENOBARBITAL AND BETA-NAPHTHOFLAVONE, Method: PREINCUBATION inactive; negative | Test System: AMES SALMONELLA TYPHIMURIUM, Strain/Indicator: TA97, Metabolic Activation: RAT, LIVER, S-9, PHENOBARBITAL AND BETA-NAPHTHOFLAVONE, Method: STANDARD PLATE inactive; negative | Test System: AMES SALMONELLA TYPHIMURIUM, Strain/Indicator: TA98, Metabolic Activation: NONE, Method: PREINCUBATION inactive; negative | [1] inactive; negative | Test System: AMES SALMONELLA TYPHIMURIUM, Strain/Indicator: TA98, Metabolic Activation: RAT, LIVER, S-9, PHENOBARBITAL AND BETA-NAPHTHOFLAVONE, Method: PREINCUBATION inactive; negative | Test System: AMES SALMONELLA TYPHIMURIUM, Strain/Indicator: TA98, Metabolic Activation: RAT, LIVER, S-9, PHENOBARBITAL AND BETA-NAPHTHOFLAVONE, Method: STANDARD PLATE inactive; negative | Test System: AMES SALMONELLA TYPHIMURIUM, Strain/Indicator: TA100, Metabolic Activation: NONE, Method: PREINCUBATION inactive; negative | [2] inactive; negative | Test System: AMES SALMONELLA TYPHIMURIUM, Strain/Indicator: TA100, Metabolic Activation: RAT, LIVER, S-9, PHENOBARBITAL AND BETA-NAPHTHOFLAVONE, Method: PREINCUBATION inactive; negative | Test System: AMES SALMONELLA TYPHIMURIUM, Strain/Indicator: TA100, Metabolic Activation: RAT, LIVER, S-9, PHENOBARBITAL AND BETA-NAPHTHOFLAVONE, Method: STANDARD PLATE inactive; negative | Test System: AMES SALMONELLA TYPHIMURIUM, Strain/Indicator: TA102, Metabolic Activation: NONE, Method: PREINCUBATION inactive; negative | Test System: AMES SALMONELLA TYPHIMURIUM, Strain/Indicator: TA102, Metabolic Activation: NONE, Method: STANDARD PLATE inactive; negative | Test System: AMES SALMONELLA TYPHIMURIUM, Strain/Indicator: TA102, Metabolic Activation: RAT, LIVER, S-9, PHENOBARBITAL AND BETA-NAPHTHOFLAVONE, Method: PREINCUBATION inactive; negative | Test System: AMES SALMONELLA TYPHIMURIUM, Strain/Indicator: TA102, Metabolic Activation: RAT, LIVER, S-9, PHENOBARBITAL AND BETA-NAPHTHOFLAVONE, Method: STANDARD PLATE inactive; negative | Test System: AMES SALMONELLA TYPHIMURIUM, Strain/Indicator: TA1535, Metabolic Activation: NONE, Method: PREINCUBATION inactive; negative | [3] inactive; negative | Test System: AMES SALMONELLA TYPHIMURIUM, Strain/Indicator: TA1535, Metabolic Activation: RAT, LIVER, S-9, PHENOBARBITAL AND BETA-NAPHTHOFLAVONE, Method: PREINCUBATION inactive; negative | Test System: AMES SALMONELLA TYPHIMURIUM, Strain/Indicator: TA1535, Metabolic Activation: RAT, LIVER, S-9, PHENOBARBITAL AND BETA-NAPHTHOFLAVONE, Method: STANDARD PLATE inactive; negative | Test System: AMES SALMONELLA TYPHIMURIUM, Strain/Indicator: TA1537, Metabolic Activation: NONE, Method: PREINCUBATION inactive; negative | [4] inactive; negative | Test System: AMES SALMONELLA TYPHIMURIUM, Strain/Indicator: TA1537, Metabolic Activation: RAT, LIVER, S-9, PHENOBARBITAL AND BETA-NAPHTHOFLAVONE, Method: PREINCUBATION inactive; negative | Test System: AMES SALMONELLA TYPHIMURIUM, Strain/Indicator: TA1537, Metabolic Activation: RAT, LIVER, S-9, PHENOBARBITAL AND BETA-NAPHTHOFLAVONE, Method: STANDARD PLATE inactive; negative | Test System: AMES SALMONELLA TYPHIMURIUM, Strain/Indicator: TA1538, Metabolic Activation: NONE, Method: PREINCUBATION inactive; negative | [5] inactive; negative | Test System: AMES SALMONELLA TYPHIMURIUM, Strain/Indicator: TA1538, Metabolic Activation: RAT, LIVER, S-9, PHENOBARBITAL AND BETA-NAPHTHOFLAVONE, Method: PREINCUBATION inactive; negative | Test System: AMES SALMONELLA TYPHIMURIUM, Strain/Indicator: TA1538, Metabolic Activation: RAT, LIVER, S-9, PHENOBARBITAL AND BETA-NAPHTHOFLAVONE, Method: STANDARD PLATE inactive; negative | Test System: CHINESE HAMSTER V-79, Strain/Indicator: V-79 (HPRT)/6-THIOGUANINE, Metabolic Activation: NONE, Method: SUSPENSION/PLATE inactive; negative | Test System: CHINESE HAMSTER V-79, Strain/Indicator: V-79 (HPRT)/6-THIOGUANINE, Metabolic Activation: RAT, LIVER, S-9, AROCLOR 1254, Method: SUSPENSION/PLATE inactive; negative | Test System: E. COLI, Strain/Indicator: WP2 UVRA, Metabolic Activation: NONE, Method: PREINCUBATION inactive; negative | Test System: E. COLI, Strain/Indicator: WP2 UVRA, Metabolic Activation: NONE, Method: STANDARD PLATE inactive; negative | Test System: E. COLI, Strain/Indicator: WP2 UVRA, Metabolic Activation: RAT, LIVER, S-9, PHENOBARBITAL AND BETA-NAPHTHOFLAVONE, Method: PREINCUBATION inactive; negative | Test System: E. COLI, Strain/Indicator: WP2 UVRA, Metabolic Activation: RAT, LIVER, S-9, PHENOBARBITAL AND BETA-NAPHTHOFLAVONE, Method: STANDARD PLATE inactive; negative | Test System: UDS RAT HEPATOCYTES, Strain/Indicator: THY INCORP, Metabolic Activation: NONE, Method: AUTORADIOGRAPHY inactive; negative

Nc1nc2cc(Cl)c(Cl)cc2s1
inactive: Test System: AMES SALMONELLA TYPHIMURIUM, Strain/Indicator: TA98, Metabolic Activation: HAMSTER, LIVER, S-9, AROCLOR 1254, Method: STANDARD PLATE inactive; negative | [1] inactive; negative | Test System: AMES SALMONELLA TYPHIMURIUM, Strain/Indicator: TA98, Metabolic Activation: RAT, LIVER, S-9, AROCLOR 1254, Method: STANDARD PLATE inactive; negative | Test System: AMES SALMONELLA TYPHIMURIUM, Strain/Indicator: TA100, Metabolic Activation: HAMSTER, LIVER, S-9, AROCLOR 1254, Method: STANDARD PLATE inactive; negative | [2] inactive; negative | Test System: AMES SALMONELLA TYPHIMURIUM, Strain/Indicator: TA100, Metabolic Activation: RAT, LIVER, S-9, AROCLOR 1254, Method: STANDARD PLATE inactive; negative | Test System: AMES SALMONELLA TYPHIMURIUM, Strain/Indicator: TA1535, Metabolic Activation: HAMSTER, LIVER, S-9, AROCLOR 1254, Method: STANDARD PLATE inactive; negative | [3] inactive; negative | Test System: AMES SALMONELLA TYPHIMURIUM, Strain/Indicator: TA1535, Metabolic Activation: RAT, LIVER, S-9, AROCLOR 1254, Method: STANDARD PLATE inactive; negative | Test System: AMES SALMONELLA TYPHIMURIUM, Strain/Indicator: TA1537, Metabolic Activation: HAMSTER, LIVER, S-9, AROCLOR 1254, Method: STANDARD PLATE inactive; negative | [4] inactive; negative | Test System: AMES SALMONELLA TYPHIMURIUM, Strain/Indicator: TA1537, Metabolic Activation: RAT, LIVER, S-9, AROCLOR 1254, Method: STANDARD PLATE inactive; negative | Test System: AMES SALMONELLA TYPHIMURIUM, Strain/Indicator: TA1538, Metabolic Activation: HAMSTER, LIVER, S-9, AROCLOR 1254, Method: STANDARD PLATE inactive; negative | [5] inactive; negative | Test System: AMES SALMONELLA TYPHIMURIUM, Strain/Indicator: TA1538, Metabolic Activation: RAT, LIVER, S-9, AROCLOR 1254, Method: STANDARD PLATE inactive; negative | Test System: MOUSE LYMPHOMA, Strain/Indicator: L5178Y (TK+/TK-), Metabolic Activation: NONE, Method: SUSPENSION/PLATE inactive; negative. reevaluation of results: negative | Test System: MOUSE LYMPHOMA, Strain/Indicator: L5178Y (TK+/TK-), Metabolic Activation: RAT, LIVER, S-9, AROCLOR 1254, Method: SUSPENSION/PLATE inactive; negative. reevaluation of results: negative
